These results are taken from ChEMBL document CHEMBL4033734, “Synthesis of 3- and 29-substituted celastrol derivatives and structure-activity relationship studies of their cytotoxic activities” (Bioorg Med Chem Lett, 2017).

Common to all, as to format: functional, cell-based
The subject of test [1] is A549. In words: Cytotoxic activity against human A549 cells incubated for 48 hrs by MTT assay. The note with it: A549, 48 h. (Formazan colour is commonly taken as a measure of viable cells.)
Test [2] has as its system HepG2. The test is described as follows: Cytotoxic activity against human HepG2 cells incubated for 48 hrs by MTT assay. The note with it: HepG2, 48 h.
In test [3] the test system is HeLa. The test is described as follows: Cytotoxic activity against human HeLa cells incubated for 48 hrs by MTT assay.
Test [4] deals with Bel-7402. In words: Cytotoxic activity against human Bel7402 cells incubated for 48 hrs by MTT assay. To be noted: Bel-7402, 48 h.
The test system of test [5] is SGC-7901. In words: Cytotoxic activity against human SGC7901 cells incubated for 48 hrs by MTT assay. To be noted: SGC-7901, 48 h.

For the compound `C=CCOC(=O)[C@]1(C)CC[C@]2(C)CC[C@]3(C)C4=CC=C5C(=CC(=O)C(O)=C5C)[C@]4(C)CC[C@@]3(C)[C@@H]2C1`, the IC50 stood at 1490 nM in test [1]; 310 nM in test [2]; 310 nM in test [3]; 630 nM in test [4]; 330 nM in test [5].

For the compound `CC(=O)N1CCN(C(=O)OC2=C(C)C3=CC=C4[C@@](C)(CC[C@@]5(C)[C@@H]6C[C@](C)(C(=O)OCc7ccccc7)CC[C@]6(C)CC[C@]45C)C3=CC2=O)CC1`, the IC50 in test [1] came out at 7200 nM; in test [2] it was 5790 nM; in test [3], 1350 nM; in test [4], 4230 nM; in test [5], 3640 nM.

As to `CC1=C(O)C(=O)C=C2C1=CC=C1[C@@]2(C)CC[C@@]2(C)[C@@H]3C[C@](C)(C(=O)OCc4ccc(Br)cc4)CC[C@]3(C)CC[C@]12C`, the half-inhibitory concentration (IC50) in test [1] turned out to be 3070 nM; in test [2] it was 660 nM; in test [3], 870 nM; in test [4], 520 nM; in test [5] it was 810 nM.

Turning to `CC1=C(OC(=O)N2CCCCC2)C(=O)C=C2C1=CC=C1[C@@]2(C)CC[C@@]2(C)[C@@H]3C[C@](C)(C(=O)OCc4ccccc4)CC[C@]3(C)CC[C@]12C`, the IC50 is 12100 nM in test [1]; 7430 nM in test [2]; 2820 nM in test [3]; 3220 nM in test [4]; 3040 nM in test [5].

For `CCCCOC(=O)[C@]1(C)CC[C@]2(C)CC[C@]3(C)C4=CC=C5C(=CC(=O)C(O)=C5C)[C@]4(C)CC[C@@]3(C)[C@@H]2C1`, the IC50 was 1360 nM in test [1]; 1050 nM in test [2]; 790 nM in test [3]; 1010 nM in test [4]; 730 nM in test [5].

For `CCOC(=O)[C@]1(C)CC[C@]2(C)CC[C@]3(C)C4=CC=C5C(=CC(=O)C(O)=C5C)[C@]4(C)CC[C@@]3(C)[C@@H]2C1`, the IC50 is 1440 nM in test [1]; 490 nM in test [2]; 830 nM in test [3]; 920 nM in test [4]; 240 nM in test [5].

Regarding `CCCCCOC(=O)[C@]1(C)CC[C@]2(C)CC[C@]3(C)C4=CC=C5C(=CC(=O)C(O)=C5C)[C@]4(C)CC[C@@]3(C)[C@@H]2C1`, the IC50 was determined as 2300 nM in test [1]; 440 nM in test [2]; 560 nM in test [3]; 810 nM in test [4]; 460 nM in test [5].

On to `COC(=O)[C@]1(C)CC[C@]2(C)CC[C@]3(C)C4=CC=C5C(=CC(=O)C(O)=C5C)[C@]4(C)CC[C@@]3(C)[C@@H]2C1` [PRISTIMERIN], for which the IC50 in test [1] came to 1030 nM; in test [2], 780 nM; in test [3] it was 320 nM; in test [4], 1160 nM; in test [5], 630 nM.

In the case of `CC1=C(O)C(=O)C=C2C1=CC=C1[C@@]2(C)CC[C@@]2(C)[C@@H]3C[C@](C)(C(=O)OCC(C)C)CC[C@]3(C)CC[C@]12C`, the IC50 in test [1] came to 1070 nM; in test [2], 340 nM; in test [3] it was 410 nM; in test [4], 530 nM; in test [5] it was 240 nM.

As to `CCC(C)OC(=O)[C@]1(C)CC[C@]2(C)CC[C@]3(C)C4=CC=C5C(=CC(=O)C(O)=C5C)[C@]4(C)CC[C@@]3(C)[C@@H]2C1` (stereo not given in full), the IC50 turned out to be 1930 nM in test [1]; 390 nM in test [2]; 360 nM in test [3]; 590 nM in test [4]; 360 nM in test [5].

As for `CC1=C(O)C(=O)C=C2C1=CC=C1[C@@]2(C)CC[C@@]2(C)[C@@H]3C[C@](C)(C(=O)OCc4ccc(C)cc4)CC[C@]3(C)CC[C@]12C`, the IC50 turned out to be 3120 nM in test [1]; 430 nM in test [2]; 1050 nM in test [3]; 630 nM in test [4]; 700 nM in test [5].

`CC1=C(O)C(=O)C=C2C1=CC=C1[C@@]2(C)CC[C@@]2(C)[C@@H]3C[C@](C)(C(=O)OCc4ccc([N+](=O)[O-])cc4)CC[C@]3(C)CC[C@]12C`: the half-inhibitory concentration (IC50) in test [1] was 2010 nM; in test [2], 440 nM; in test [3], 410 nM; in test [4] it was 240 nM; in test [5], 510 nM.

Regarding `CC1=C(O)C(=O)C=C2C1=CC=C1[C@@]2(C)CC[C@@]2(C)[C@@H]3C[C@](C)(C(=O)OCOCc4ccccc4)CC[C@]3(C)CC[C@]12C`, the IC50 was determined as 3780 nM in test [1]; 370 nM in test [2]; 1120 nM in test [3]; 510 nM in test [4]; 300 nM in test [5].

`CC1=C(OC(=O)N2CCOCC2)C(=O)C=C2C1=CC=C1[C@@]2(C)CC[C@@]2(C)[C@@H]3C[C@](C)(C(=O)OCc4ccccc4)CC[C@]3(C)CC[C@]12C`: the IC50 stood at 9350 nM in test [1]; 1360 nM in test [2]; 1550 nM in test [3]; 1560 nM in test [4]; 1780 nM in test [5].

Turning to `CCCOC(=O)[C@]1(C)CC[C@]2(C)CC[C@]3(C)C4=CC=C5C(=CC(=O)C(O)=C5C)[C@]4(C)CC[C@@]3(C)[C@@H]2C1`, the IC50 in test [1] stood at 2150 nM; in test [2], 280 nM; in test [3] it was 1380 nM; in test [4], 410 nM; in test [5] it was 470 nM.

`CC1=C(O)C(=O)C=C2C1=CC=C1[C@@]2(C)CC[C@@]2(C)[C@@H]3C[C@](C)(C(=O)OCc4ccc(I)cc4)CC[C@]3(C)CC[C@]12C`: the IC50 in test [1] was found to be 7700 nM; in test [2] it was 1950 nM; in test [3], 1320 nM; in test [4] it was 860 nM; in test [5] it was 810 nM.

For `CC1=C(OC(=O)N2CCCCC2C)C(=O)C=C2C1=CC=C1[C@@]2(C)CC[C@@]2(C)[C@@H]3C[C@](C)(C(=O)OCc4ccccc4)CC[C@]3(C)CC[C@]12C` (stereo not given in full), the IC50 came to 15000 nM in test [1]; 8190 nM in test [2]; 4270 nM in test [3]; 5050 nM in test [4]; 4730 nM in test [5].

Turning to `CC1=C(OC(=O)N(C)c2ccccc2)C(=O)C=C2C1=CC=C1[C@@]2(C)CC[C@@]2(C)[C@@H]3C[C@](C)(C(=O)OCc4ccccc4)CC[C@]3(C)CC[C@]12C`, the IC50 in test [1] was 14800 nM; in test [2] it was 4250 nM; in test [3] it was 6360 nM; in test [4], 4070 nM; in test [5], 4310 nM.

Regarding `CCOC(=O)COC(=O)[C@]1(C)CC[C@]2(C)CC[C@]3(C)C4=CC=C5C(=CC(=O)C(O)=C5C)[C@]4(C)CC[C@@]3(C)[C@@H]2C1`, the IC50 in test [1] turned out to be 3890 nM; in test [2], 760 nM; in test [3], 610 nM; in test [4] it was 300 nM; in test [5], 670 nM.

On to `CC1=C(OC(=O)N2CCN(Cc3ccccc3)CC2)C(=O)C=C2C1=CC=C1[C@@]2(C)CC[C@@]2(C)[C@@H]3C[C@](C)(C(=O)OCc4ccccc4)CC[C@]3(C)CC[C@]12C`, for which the IC50 came out at 8850 nM in test [1]; 9900 nM in test [2]; 18000 nM in test [3]; 5170 nM in test [4]; 11700 nM in test [5].

In the case of `CCCCCCOC(=O)[C@]1(C)CC[C@]2(C)CC[C@]3(C)C4=CC=C5C(=CC(=O)C(O)=C5C)[C@]4(C)CC[C@@]3(C)[C@@H]2C1`, the IC50 in test [1] stood at 9310 nM; in test [2], 1740 nM; in test [3], 1840 nM; in test [4], 2210 nM; in test [5], 1580 nM.

What is called IC50 is the point on the concentration scale where inhibition reaches its midpoint. Low readings indicate higher potency, high ones lower potency.
